From patent publication US10188617B2, “Modulation of cellular DNA repair activity to intercept malignancy” (THE BOARD OF TRUSTEES OF THE LELAND STANFORD JUNIOR …, priority 2013, dated 2019) come the findings set out here.

Experiment [1] relates to BER of ODD in SUM149PT cells. The experiment in a line: High-throughput chemical screen with cell-based DNA repair assay (oxidatively damaged GFP reporter, host-cell reactivation).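 As to all read-outs here: SUM149PT cells pretreated 24 h with compound, then given photodynamically oxidized adenoviral GFP reporter, 24 h host-cell reactivation, GFP read as repair, undamaged reporter positive and damaged reporter negative control.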 The note with it: for EC50: read-out: EC50 (image analysis), dose-response increase in GFP expression by imaging, 20 μM to 0.3 μM two-fold dilutions; for Priority score (summed priority score): sum of assigned priority scores, range 1-10, 10 = highest priority; for % BER (High) (image analysis): % BER activity relative to negative control at high concentration; for identified as hit in the screen (enhanced BER of ODD): LOPAC1280 library, summed priority score above 1.

For experiment [2], the system named is BER of ODD in MCF7 cells (wild-type BRCA1, BER-proficient). In words: DNA repair assay (oxidatively damaged GFP reporter gene), follow-up. It is filed as cell-based, human. The note with it: BER-proficient MCF7 cells. On the procedure:
(§1) Human breast cancer cell lines that were deficient in BER (HCC1143, MDAMB468, HCC1937, and SUM149) or proficient in BER (BT474 and MCF7) were cultured according to American Type Culture Collection guidelines, with the exception of SUM149, which was cultured according to Asterand plc guidelines. Brca1^+/+ and Brca1^-/- mouse mammary epithelial […] previously described. Cells were treated with DMSO (vehicle control) or acetohexamide or benserazide as indicated for 24 hours at 37° C. and 5% CO2. The DNA repair assay was carried out as described in the examples below. Where indicated, BER (base excision mode of DNA repair) activity was expressed relative to the control (DMSO).
In general terms: In a reporter assay the amount or activity of a reporter protein is the signal.

Experiment [3] relates to BER of ODD in SUM149 cells (mutant BRCA1, BER-defective). The experiment is described as above. The format is cell-based, human. The settings on record: for BER compared to the vehicle control (SAR mini-analysis): SUM149PT cells; for repair activity compared to the vehicle control: SUM149. The procedure:
as §1

Experiment [4] concerns MCF7 cells transduced with non-targeting control. The experiment in a line: Soft agar colony formation assay. The format is cell-based, human. The text has this:
(§2) […] Colony formation represents tumorigenic potential. Tamoxifen is the current FDA-approved chemoprevention agent for breast cancer and a therapeutically-equivalent dose was used for comparison.
(§3) Benserazide and carbidopa were also both included among the compounds screened for BER-enhancing activity (FIG. 3A-3B). […] Therefore, we first validated our screening data by subjecting the mutant BRCA1-containing SUM149 cell line to the BER assay following pre-treatment with vehicle control or carbidopa.

Experiment [5] concerns MCF7 cells transduced with shRNA to BRCA1. In words: Soft agar colony formation assay. The format is cell-based, human.
Source text: as §2, §3

Structures are written as SMILES. Counter-ions that a name gives are not always drawn.

As usually defined, the EC50 is the concentration giving half of the maximal effect. On to `Cl.NC(CO)C(=O)NNCc1ccc(O)c(O)c1O` (racemic) [Benserazide hydrochloride, DL-Serine 2-(2,3,4-trihydroxybenzyl)hydrazide hydrochloride], for which, in experiment [1], the 50% effective concentration (EC50) came to 22.1 µM and the “Priority score (summed priority score)” value is recorded as 7.
In the same order, the values of `COC(=O)C(N)Cc1ccc(Cl)cc1.Cl` (racemic) [DL-p-Chlorophenylalanine methyl ester hydrochloride] are 25.8 µM and 7.
`CN(C)CCC(c1ccc(Br)cc1)c1ccccn1.O=C(O)/C=C\C(=O)O` (single isomer, unassigned; (+)) [(+)-Brompheniramine maleate]: the “% BER (High) (image analysis)” value in experiment [1] (imaging) was 29.4%. Moreover, in experiment [1], the concentration for a half-maximal effect (EC50) came out at 27.5 µM and the “Priority score (summed priority score)” value was found to be 7.
On the same counts, the results for `Cl.NCCc1ccc(S(=O)(=O)F)cc1` [4-(2-Aminoethyl)benzenesulfonyl fluoride hydrochloride] are 25.1%, 98.7 µM and 7.
Consider `O=c1[nH]c(=O)n([C@H]2C[C@H](O)[C@@H](CO)O2)cc1Br` [5-Bromo-2′-deoxyuridine], for which the “GFP signal in image montage” value in experiment [1] (preliminary screen, highest concentration tested 18 uM) was “visible signal similar to that of SUM149PTcells infected with undamaged adGFP”. For the same compound, the “percentage of GFP-positive cells (normalized to Hoechst 33342-positive cells)” value in experiment [1] (preliminary screen, imaging) is given as “dose-response increase in the percentage of GFP-positive cells”. In experiment [1] (preliminary screen, plate reading), the “GFP intensity (normalized to Hoechst 33342-intensity)” value is “dose-response increase in GFP intensity”. In experiment [1], the EC50 is 7.27 µM and the “Priority score (summed priority score)” value was determined as 10.
Consider `N=c1ccn2c(n1)O[C@H]1[C@H](O)[C@@H](CO)O[C@H]12` [Ancitabine hydrochloride], for which, in experiment [1], the concentration for a half-maximal effect (EC50) was 19.8 µM and the “Priority score (summed priority score)” value was determined as 10.
Take `Cc1ccc(S(=O)(=O)NC(=O)NC2CCCCC2)cc1` [BA-4]: the “repair compared to vehicle control (SAR mini-analysis)” value in experiment [2] is recorded as “none of the four analogs significantly increased repair”. In experiment [3], the “BER compared to the vehicle control (SAR mini-analysis)” value is given as “significantly increased BER”.
On the same counts, the results for `CCCCNC(=O)NS(=O)(=O)c1ccccc1` [BA-5] are “none of the four analogs significantly increased repair” and “increased BER in these cells but without statistical significance”.
On the same counts, the results for `CC(C)CCNC(=O)NS(=O)(=O)c1ccccc1` [BA-9] are “none of the four analogs significantly increased repair” and “significantly increased BER”.
`CC(C)COCC(CN(Cc1ccccc1)c1ccccc1)N1CCCC1` (stereo not drawn) [Bepridil hydrochloride]: in experiment [1], the EC50 is 22.7 µM and the “Priority score (summed priority score)” value was 10.
On the same counts, the results for `CC[N+](C)(C)Cc1ccccc1Br` [Bretylium tosylate] are 26.9 µM and 7.
In the same order, the values of `CNc1ccc2oc(C[C@H]3O[C@@]4(CC[C@H]3C)O[C@H]([C@H](C)C(=O)c3ccc[nH]3)[C@H](C)C[C@H]4C)nc2c1C(=O)O` [Calcimycin] are 5.14 µM and 7.
With `C[C@@]12C(=O)OC(=O)[C@]1(C)[C@H]1CC[C@@H]2O1` [Cantharidin], the “Priority score (summed priority score)” value in experiment [1] was 10.
Turning to `C[C@H](CS)C(=O)N1CCC[C@H]1C(=O)O` [Captopril], in experiment [1], the EC50 stood at 18.8 µM and the “Priority score (summed priority score)” value is 7.
As to `CN(C)CCOC(=O)COc1ccc(Cl)cc1` [Centrophenoxine hydrochloride], in experiment [1], the half-maximal effective concentration (EC50) came out at 20.4 µM and the “Priority score (summed priority score)” value is listed as 7.
Regarding `Clc1ccccc1C(c1ccccc1)(c1ccccc1)n1ccnc1` [Clotrimazole], the “Priority score (summed priority score)” value in experiment [1] is reported as 7.
On to `CC(=O)O[C@]1(C(C)=O)CC[C@H]2[C@@H]3C=C(Cl)C4=CC(=O)[C@@H]5C[C@@H]5[C@]4(C)[C@H]3CC[C@@]21C` [Cyproterone acetate], for which, in experiment [1], the EC50 amounted to 27.8 µM and the “Priority score (summed priority score)” value worked out at 7.
Consider `Cl.Nc1ccn([C@@H]2O[C@H](CO)[C@@H](O)[C@@H]2O)c(=O)n1` [Cytosine-1-beta-D-arabinofuranoside hydrochloride], for which, in experiment [1] (imaging), the “% BER (High) (image analysis)” value is recorded as 18.3%. Also, in experiment [1], the concentration giving a half-maximal response (EC50) came to 22.8 µM and the “Priority score (summed priority score)” value is recorded as 10.
Turning to `Cc1cnc(C(=O)NCCc2ccc(S(=O)(=O)NC(=O)NC3CCCCC3)cc2)cn1` [Glipizide, N-(4-[N-(cyclohexylcarbamoyl)sulfamoyl]phenethyl)-5-methylpyrazine-2-carboxamide], the “repair compared to vehicle control (SAR mini-analysis)” value in experiment [2] is given as “none of the four analogs significantly increased repair”. The “BER compared to the vehicle control (SAR mini-analysis)” value in experiment [3] is on record as “significantly increased BER”. Besides, the “relative BER activity” value in experiment [3] (relative to the control (DMSO)) is reported as 1.22±0.12. Besides, in experiment [1], the “identified as hit in the screen (enhanced BER of ODD)” value is on record as “identified as a hit” and the “Priority score (summed priority score)” value stood at 2.
As to `O=C1c2c(O)ccc(O)c2C(=O)c2c(NCCNCCO)ccc(NCCNCCO)c21` [Mitoxantrone], in experiment [1], the EC50 was 13.2 µM and the “Priority score (summed priority score)” value came to 7.
With `C[C@@](Cc1ccc(O)c(O)c1)(NN)C(=O)O` [carbidopa, Carbidopa], the “repair activity compared to the vehicle control” value in experiment [3] (10 μM) and in experiment [3] (20 μM) was “no effect on repair activity” throughout. For the same compound, the “colony formation compared to vehicle control” value in experiment [4] (10 μM), in experiment [4] (20 μM), in experiment [5] (10 μM) and in experiment [5] (20 μM) was “no significant effect on colony formation” throughout. In experiment [1], the “identified as hit in the screen (enhanced BER of ODD)” value was “did not identify carbidopa as a hit”.
